Assay results taken from PMC10138714, “Evaluation of Some Safety Parameters of Dual Histamine H3 and Sigma-2 Receptor Ligands with Anti-Obesity Potential” (International Journal of Molecular Sciences, 2023).

Legend:
sigma-2 receptors = biological target: sigma-2 receptors; set-up: method as in earlier work; conditions: cited from earlier work
mice [1] = experiment: Locomotor activity in mice (activity cages, photobeam breaks); format: in vivo, male Albino Swiss (CD-1) mice; conditions: vs vehicle group
Experimental: (§1) Blood pressure measurement and ECG were performed on male Wistar rats weighing 200–220 g (six months old). Locomotor activity and chimney tests were performed on adult male Albino Swiss (CD-1) mice weighing 18–22 g ([…]). The animals were obtained from an accredited animal house at the Faculty of Pharmacy, Jagiellonian University Medical College, Krakow, Poland. The experimental groups consisted of 6–8 animals. The animals were housed in constant temperature (22–24 °C) and humidity (40–60%) facilities, exposed to 12:12 h light/dark cycles, and were maintained on a standard pellet diet with tap water available ad libitum. Rats and mice were housed in pairs or 8 animals per home cage, respectively.
Locomotor activity was individually recorded for each animal using specifically designed activity cages made of clear Perspex (40 cm × 40 cm × 31 cm, Activity Cage 7441, Ugo Basile, Italy). The cages were supplied with I.R. horizontal beam emitters connected to a counter that records the light-beam interruptions. The compounds suspensions were administered as i.p. injections 30 min before testing. Control animals received injections of vehicles. Each mouse was placed in a cage for a 30 min habituation period. After that time, the number of breaks in the photobeams was measured for 5 min, which is the same time as the observation period used in other tests.

mice [2] = experiment: Motor coordination in the chimney test; format: in vivo, male Albino Swiss (CD-1) mice; conditions: chimney test, 30 min after injection, n = 8
Experimental: as §1
The effect of tested compounds on motor impairment were quantified with the chimney test of Boissier et al. (1960). The mice were trained before the test, and only the animals able to get out of the chimney within 1 min were used at the experimental stage. The selected mice were placed in a 25 cm-long and 2.5 cm in diameter […] tube, which was reversed so that the mice could leave it only by climbing up backward until they reached the other end. The test was performed 30 min after injection (i.p.) of the examined compounds. Motor impairment was indicated by the inability of the animals to climb up backwards in the transparent tube within 60 s.

normotensive rats = experiment: Blood pressure in anesthetized normotensive rats (carotid artery cannulation); format: in vivo, male Wistar rats; conditions: single i.p. 10 mg/kg b.w., 30–60 min after administration
Experimental: as §1
Rats were anesthetized with thiopental (70 mg/kg) via i.p. injection. The left carotid artery was cannulated with polyethylene tubing filled with a heparin solution in saline to facilitate pressure measurements using a PowerLab Apparatus (ADInstruments, Sydney, Australia). After a 20 min stabilization period, the test compounds were administered i.p. at a dose of 10 mg/kg b.w. in a constant volume of 1 mL/kg b.w. Blood pressure was recorded immediately before administration and 5, 10, 15, 20, 30, 40, 50, and 60 min after the administration of the test compound [47].

[3] = biological target: T1, human ERG potassium channel (Kv11.1) (Homo sapiens, UniProt Q12809); experiment: Whole-cell automated patch clamp (QPatch16X), inhibition of hERG currents; format: cell-based
T1 construct: expressed in transfected cells
Experimental: Electrophysiology experiments were performed on a QPatch16X automatic patch clamp platform (Sophion Bioscience, Ballerup, Denmark). Chinese hamster ovary (CHO) cells stably expressing the human ERG potassium channel (Kv11.1) were cultured using standard procedures. On the day of the experiment, cells were collected from the culture flask using TrypLE Express solution (Life Technologies, Thermo Fisher Scientific, Carlsbad, California, United States) and resuspended in EX-CELL ACF CHO serum-free medium (Merck KGaA, Sigma-Aldrich, Darmstadt, Germany), supplemented with 25 mM HEPES, 100 U/mL penicillin/streptomycin, and 0.04 mg/mL soybean trypsin inhibitor (all components from Sigma Aldrich).
The cells were placed in the lidless microtube and located onboard the automated electrophysiology instrument, where they were automatically relocated to a built-in centrifuge.
Cells were transferred to pipetting wells of single-use 16-channel planar patch chip plates (QPlate 16X, Sophion Bioscience, Ballerup, Denmark) and gigaseals were formed upon application of a combined suction/voltage protocol in a standard protocol supplied by Sophion Bioscience for CHO cells. Once the whole-cell mode was obtained, the cells were kept in a holding potential of -90 mV between the programmed stimulation protocols.
Whole-cell potassium currents were measured in response to repeatedly executed voltage protocols constituted of the following steps: brief clamping to −50 mV (200 ms), subsequent depolarization to 20 mV for 4000 ms, and final repolarization to −50 mV when the outward tail current was measured for 4000 ms.
The average current peak values determined in the presence of particular concentrations of the compound tested were subjected to a sigmoidal dose–response curve fitting, where the bottom plateau parameter was constrained to 0. The IC50 values were then calculated from the obtained sigmoidal dose–response curves. Data were analyzed using QPatch Assay Software (v5.0, Sophion Bioscience, Ballerup, Denmark) and represent the mean of three experiments carried out on distinct cells.

rats = experiment: Heart rate and ECG intervals in rats; format: in vivo, male Wistar rats; conditions: 10 mg/kg i.p.
Experimental: as §1
In vivo electrocardiographic measurements were performed using an ASPEL ASCARD B5 apparatus, standard lead II, and a paper speed of 50 mm/s. The study was carried out after a single administration of the test compounds (10 mg/kg i.p.). […] The following parameters were then calculated and analyzed: duration of PQ, QT, QRS, RR intervals, and heart rate.

[4] = system: rats fed a palatable diet; experiment: Plasma AlaT, AspaT, gGT and ALP activity after repeated administration in rats fed a palatable diet; format: in vivo; conditions: 10 mg/kg b.w. i.p. repeated
Experimental: Standard diet ( 8% fats, 67% carbohydrates, and 25% proteins) contained 100 g feed—280 kcal. Rats fed a palatable diet had access to a diet consisting of milk chocolate with nuts, cheese, salted peanuts, and 7% condensed milk and simultaneously to standard feed (Labofeed B, Morawski Manufacturer Feed, Kcynia, Poland) for 4 weeks. The feeding was not in any way forced, and rats decided themselves when, what, and how much to eat. A palatable diet contained 100 g of peanuts—612 kcal; 100 mL of condensed milk—131 kcal; 100 g of milk chocolate—529 kcal; and 100 g of cheese—325 kcal.
The study evaluating the activities of alanine aminotransferase (AlaT), aspartate aminotransferase (AspaT), gamma-glutamyl transpeptidases (gGT), and alkaline phosphatase (ALP) was carried out after completing the excessive eating model experiments described in our previous work. Compounds were administered for twenty-eight days at a dose of 10 mg/kg b.w./day. On the 31st day of the experiment, 20 min after i.p. administration of heparin (5000 units/rat) and thiopental (70 mg/kg b.w.), blood was collected from the left carotid artery and then centrifuged at 600× g (15 min, 4 °C) in order to obtain the plasma. To determine the activities of AlaT, AapaT, gGT, and ALP in the plasma samples, a standard enzymatic spectrophotometric test (Biomaxima S.A., Lublin, Poland) was used.

H3R = biological target: H3R; set-up: method as in PMID 34908391; conditions: cited from earlier work
σ1R = biological target: σ1R; set-up: method as in PMID 34908391; conditions: cited from earlier work
σ2R = biological target: σ2R; set-up: method as in PMID 34908391; conditions: cited from earlier work

T1 sequence (Q12809 whole entry): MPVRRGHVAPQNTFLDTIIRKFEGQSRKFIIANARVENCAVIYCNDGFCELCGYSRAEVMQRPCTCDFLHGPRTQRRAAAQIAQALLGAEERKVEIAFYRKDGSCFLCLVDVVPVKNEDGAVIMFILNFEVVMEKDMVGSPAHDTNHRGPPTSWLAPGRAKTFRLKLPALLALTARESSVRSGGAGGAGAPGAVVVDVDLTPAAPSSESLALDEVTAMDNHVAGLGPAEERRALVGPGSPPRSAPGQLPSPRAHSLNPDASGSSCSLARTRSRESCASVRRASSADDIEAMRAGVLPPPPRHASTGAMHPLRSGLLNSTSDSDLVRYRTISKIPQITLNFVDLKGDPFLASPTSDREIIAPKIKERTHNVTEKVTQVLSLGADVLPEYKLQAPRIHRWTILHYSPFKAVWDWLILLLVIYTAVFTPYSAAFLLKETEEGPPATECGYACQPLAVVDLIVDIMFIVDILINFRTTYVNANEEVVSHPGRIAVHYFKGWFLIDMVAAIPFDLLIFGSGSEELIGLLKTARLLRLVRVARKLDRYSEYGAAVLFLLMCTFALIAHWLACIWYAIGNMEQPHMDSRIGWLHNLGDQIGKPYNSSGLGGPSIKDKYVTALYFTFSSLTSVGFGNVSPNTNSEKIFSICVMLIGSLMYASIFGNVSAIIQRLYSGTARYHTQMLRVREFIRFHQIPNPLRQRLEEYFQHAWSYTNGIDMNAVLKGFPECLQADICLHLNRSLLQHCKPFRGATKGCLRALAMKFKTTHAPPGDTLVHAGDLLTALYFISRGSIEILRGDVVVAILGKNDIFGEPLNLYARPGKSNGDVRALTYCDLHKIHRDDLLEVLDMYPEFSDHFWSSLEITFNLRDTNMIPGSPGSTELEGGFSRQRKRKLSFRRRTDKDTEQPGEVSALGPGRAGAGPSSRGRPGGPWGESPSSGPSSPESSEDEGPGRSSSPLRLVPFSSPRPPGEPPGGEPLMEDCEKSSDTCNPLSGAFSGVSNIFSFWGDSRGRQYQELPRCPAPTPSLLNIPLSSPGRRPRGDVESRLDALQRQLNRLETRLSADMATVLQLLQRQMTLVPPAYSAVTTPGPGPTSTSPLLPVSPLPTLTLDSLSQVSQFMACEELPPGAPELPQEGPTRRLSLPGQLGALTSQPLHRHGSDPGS

Clc1ccc(CCCOCCCN2CCCCC2)cc1 [Pitolisant]
Ki (sigma-2 receptors): 6.5 nM

CCC(=O)c1ccc(OCCCCCCCCN2CCN(c3ccncc3)CC2)cc1 [KSK-74]
Locomotor activity (mice [1]; single i.p. 10 mg/kg b.w., 30 min before test): significantly increased | Locomotor activity (mice [1]; single i.p. 30 mg/kg b.w.): No significant changes | % of Mice Impaired (mice [2]; 10 mg/kg i.p.): 0% | % of Mice Impaired (mice [2]; 20 mg/kg i.p.): 12.5% | % of Mice Impaired (mice [2]; 30 mg/kg i.p.): 12.5% | Decrease of diastolic blood pressure (normotensive rats): 10–13 mmHg | Decrease of systolic blood pressure (normotensive rats): approx. 12 mmHg | IC50 ([3]; CHO cells stably expressing human ERG, whole-cell, mean of three experiments, read-out: Mean IC50 ± SEM, inhibition of hERG currents): 3400 ± 289 nM | Inhibition of hERG compared with verapamil ([3]; relative to reference compound verapamil): almost seven times weaker | Heart rate (rats; time 0 min): 381.8 ± 19.9 beats/min | PQ (rats; time 0 min): 56.3 ± 4.1 ms | QRS (rats; time 0 min): 20.0 ± 0.0 ms | QT (rats; time 0 min): 62.5 ± 4.3 ms | Heart rate (rats; time 15 min): 356.3 ± 18.9 beats/min | PQ (rats; time 15 min): 53.8 ± 4.1 ms | QRS (rats; time 15 min): 20.0 ± 0.0 ms | QT (rats; time 15 min): 60.0 ± 5.0 ms | Heart rate (rats; time 30 min): 355.3 ± 32.2 beats/min | PQ (rats; time 30 min): 56.3 ± 2.2 ms | QRS (rats; time 30 min): 20.0 ± 0.0 ms | QT (rats; time 30 min): 61.3 ± 6.5 ms | Heart rate (rats; time 45 min): 364.6 ± 18.1 beats/min | PQ (rats; time 45 min): 57.5 ± 2.5 ms | QRS (rats; time 45 min): 20.0 ± 0.0 ms | QT (rats; time 45 min): 65.0 ± 6.1 ms | Heart rate (rats; time 60 min): 370.8 ± 23.9 beats/min | PQ (rats; time 60 min): 55.0 ± 5.0 ms | QRS (rats; time 60 min): 20.0 ± 0.0 ms | QT (rats; time 60 min): 62.5 ± 8.3 ms | Plasma AlaT activity ([4]; vs vehicle control fed palatable feed): lower | Plasma ALP activity ([4]; vs vehicle group with palatable feed): lower plasma ALP activity | Ki (H3R): 38.9 nM | H3/σ1 (H3R; ratio of Ki values): 0.14 | H3/σ2 (H3R; ratio of Ki values): 0.59 | Ki (σ1R): 274 nM | σ1/σ2 (σ1R; ratio of Ki values): 4.16 | Ki (σ2R): 65.9 nM
